A word on the solubility: it is the dissolved amount per volume that the medium holds.

≈ marks a conversion by molar mass, not a printed value. Read-outs that look alike come from different tables or passages of the source. Where only a bound is given, the exact number is not on record here.

For data set [1] the following is noted: in vivo; cited from earlier work.
Data set [2] in a line: Solubility of raw material (Table 1). The class given is physicochemical. The text has this: Table 1 summarizes the physical properties of the raw materials in the capsule.
Another data set deals with patients with cancer. Particulars: cited from earlier work.
A further data set deals with all animal species. Particulars: cited from earlier work.
The next data set is described as follows: in vivo. Particulars: female, CD1 nu/nu, mouse, ip.
For the next data set, the system named is rats. Particulars: rat, in vivo; cited from earlier work.
The test system of a further data set is dogs. The note with it: dog, in vivo; cited from earlier work.

Protocol for in vivo: To test whether the maximum tolerated dose (MTD) of vorinostat in mice can be increased with zinc supplementation, Mice (CD1 nu/nu female, 6-8 weeks old, Charles River Laboratories) are administered vehicle, 150 mg/kg (MTD) or 300 mg/kg vorinostat in vehicle (Table 11). Mice are given 0.5, 1, or 5 molar equivalents (relative to vorinostat) of zinc chloride. This corresponds to ZnCl2 doses of 38.5, 77, and 385 mg/kg for the 150 mg/kg vorinostat group.
Body weight and survival are monitored as indications of toxicity. Doses resulting in a group average body weight loss of more than 20% average will be considered non-tolerated. Likewise, doses resulting in the treatment-related death of more than 2 mice per group will be considered non-tolerated.

Regarding `CC(=O)NO` [Lithostat, acetohydroxamic acid], the side effects entry in data set [1] is “nausea, vomiting, anorexia, fatigue, malaise, reticulocytosis, anemia, thrombocytopenia, leukopenia and headache”.

For the compound `CC(=O)N(O)CCCCCNC(=O)CCC(=O)N(O)CCCCCNC(=O)CCC(=O)N(O)CCCCCN` [Desferrioxamine], in data set [1], the side effects entry is “fatigue, bone marrow atrophy, thymic atrophy and neutropenia”.

Turning to `O=C(CCCCCCC(=O)Nc1ccccc1)NO` [Suberoylanilide hydroxamic acid (SAHA), N-hydroxy-N′-phenyloctanediamide], the solubility in data set [2] (2% CIP100 aqueous solution, aqueous with cosolvent or surfactant or cyclodextrin, 2% CIP100 aqueous soln., read-out: Solubility in 2% CIP100 aqueous soln.) was 11.3 mg/mL (≈ 42.8 mM); in data set [2] (2% SD-20 aqueous solution, aqueous with cosolvent or surfactant or cyclodextrin, 2% SD-20 aqueous soln., read-out: Solubility in 2% SD-20 aqueous soln.), 0.085 mg/mL (≈ 0.322 mM); in data set [2] (in water, read-out: Solubility in Water), below 0.1 mg/mL; in data set [2] (organic solvent or mixture, in methanol, read-out: Solubility in Methanol) it was 42 mg/mL (≈ 159 mM). Moreover, in the data set with patients with cancer, the “Clinical adverse experiences or side effects” value is on record as “diarrhea, fatigue, nausea, thrombocytopenia, anorexia, dysgeusia, weight decrease, muscle spasms, alopecia, anemia, blood creatinine increase, vomiting, chills”. Moreover, the Preclinical toxicity result in the data set with all animal species is “weight loss or inappetence, immune suppression (leucopenia, lymphopenia, thymic atrophy)”; in the data set on rats, “thrombocytopenia”; with dogs, “gastrointestinal toxicity (mucosal atrophy, acute inflammation, necrosis, multiple lesions), dehydration, electrolyte loss, testicular atrophy”. This compound also had an MTD in the data set “in vivo” of 150 mg/kg.

The values above are taken from patent US20120142770A1, “PHARMACEUTICAL COMPOSITIONS OF HDAC INHIBITORS AND CHELATABLE METAL COMPOUNDS, AND METAL-HDAC INHIBITOR CHELATE COMPLEXES” (Merck Sharp & Dohme Corp, priority 2006, published 2012).
